# Data reported in US6489337B1, “Method for treating histamine H3 receptor-mediated disorders with 2- or 3-aryl substituted imidazo[1,2-a] pyridines” (Ortho-McNeil Pharmaceutical, Inc., priority 2000, dated 2002).
# Counter-ions that a name gives are not always drawn.
# Test system: not given
# Experiment: not given
# Details: not given
row,melting point [°C],SMILES
1,179 to 183,"CCCCN(CCCC)CCCOc1ccc(-c2cn3ccccc3n2)cc1 (as salt: HCl) [Example 1, 2-(4-Dibutylaminopropoxyphenyl)imidazo[1,2-a]pyridine]"
2,214 to 217,"CCCCN(CCCC)CCCOc1ccc(-c2cn3cccc(C)c3n2)cc1 (as salt: HCl) [Example 2, 2-[4-[3-(Dibutylamino)propoxy]phenyl)-8-methylimidazo[1,2-a]pyridine]"
3,202 to 204,"CCCCN(CCCC)CCCOc1ccc(-c2nc3c(C)cccn3c2C)cc1 (as salt: HCl) [Example 4, 2-(4-Dibutylaminopropoxyphenyl)-3,8-dimethylimidazo[1,2-a]pyridine]"
4,159 to 161,"CCCCN(CCCC)CCCOc1ccc(C(=O)c2cn3cccc(C)c3n2)cc1 (as salt: HCl) [Example 5, 2-(4-Dibutylaminopropoxybenzoyl)-8-methylimidazo[1,2-a]pyridine]"

# Target: T1, human histamine H3 receptor (Homo sapiens, UniProt Q9Y5N1)
# T1 construct: expressed in transfected cells; membranes prepared from cell pellets
# T1 sequence (Q9Y5N1 whole entry): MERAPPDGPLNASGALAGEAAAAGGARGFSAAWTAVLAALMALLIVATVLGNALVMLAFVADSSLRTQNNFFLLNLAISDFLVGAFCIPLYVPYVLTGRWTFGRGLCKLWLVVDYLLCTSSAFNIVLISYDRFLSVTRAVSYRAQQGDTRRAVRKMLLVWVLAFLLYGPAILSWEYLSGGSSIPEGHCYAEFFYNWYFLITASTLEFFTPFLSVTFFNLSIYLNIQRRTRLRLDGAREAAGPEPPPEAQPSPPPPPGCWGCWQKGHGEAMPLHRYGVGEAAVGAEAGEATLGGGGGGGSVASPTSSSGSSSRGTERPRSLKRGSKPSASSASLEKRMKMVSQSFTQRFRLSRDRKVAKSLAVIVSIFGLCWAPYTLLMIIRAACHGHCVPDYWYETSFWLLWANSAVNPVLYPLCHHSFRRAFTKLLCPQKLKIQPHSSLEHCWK
# Experiment: [3H]-N-methylhistamine binding
# Details: membranes of histamine H3 receptor-expressing SK-N-MC cells; 0.8 nM [3H]-N-methylhistamine; 45 minutes at 25° C.; KI=(IC50)/(1+([L]/(KD)), KD 800 pM
# Description: In the present invention receptor binding was determined using the human histamine H3 receptor (See Lovenberg et al Mol. Pharmacol. 1999, 1107). Screening using the human receptor is particularly important for the identification of new therapies for the treatment of human disease. Conventional binding assays for example are determined using rat synaptosomes (Garbarg et al J. Pharmacol. Exp. Ther. 1992, 263, 304), rat cortical membranes (West et al Mol. Pharmacol. 1990, 610), and guinea pig brain (Korte et al Biochem. Biophys. Res. Commun. 1990, 978). Only limited studies have been performed previously using human tissue but these allude to significant differences in the pharmacology of rodent and primate receptors (West et al Eur. J. Pharmacol. 1999, 233).
# A 10 cm tissue culture dish with a confluent monolayer of SK-N-MC cells was split two days prior to transfection. Using sterile technique the media was removed and the cells were detached from the dish by the addition of trypsin. One fifth of the cells were then placed onto a new 10 cm dish. Cells were grown in a 37° C. incubator with 5% CO2 in Minimal Essential Media Eagle with 10% Fetal Bovine Serum. After two days cells were approximately 80% confluent. These were removed from the dish with trypsin and pelleted in a clinical centrifuge. The pellet was then re-suspended in 400 μL complete media and transferred to an electroporation cuvette with a 0.4 cm gap between the electrodes (Bio-Rad #165-2088). One microgram supercoiled H3 receptor cDNA was added to the cells and mixed. The voltage for the electroporation was set at 0.25 kV, the capacitance is set at 960 μF.
# After electroporation the cells were diluted into 10 mL complete media and plated onto four 10 cm dishes. Due to the variability in the efficiency of electroporation, four different concentrations of cells were plated. The ratios used were: 1:20, 1:10, and 1:5, with the remainder of the cells being added to the fourth dish. The cells were allowed to recover for 24 hours before adding the selection media (complete media with 600 μg/ml G418). After 10 days dishes were analyzed for surviving colonies of cells. Dishes with well-isolated colonies were used. Cells from individual colonies were isolated and tested. SK-N-MC cells were used because they give efficient coupling for inhibition of adenylate cyclase. The clones that gave the most robust inhibition of adenylate cyclase in response to histamine were used for further study.
# 1(B) [^3H]-N-methylhistamine Binding
# Cell pellets from histamine H3 receptor-expressing SK-N-MC cells were homogenized in 20 mM TrisHCl/0.5 mM EDTA. Supernatants from a 800 g spin were collected, recentrifuged at 30,000 g for 30 minutes. Pellets were rehomogenized in 50 mM Tris/5 mM EDTA (pH 7.4). Membranes were incubated with 0.8 nM [^3H]-N-methylhistamine plus/minus test compounds for 45 minutes at 25° C. and harvested by rapid filtration over GF/C glass fiber filters (pretreated with 0.3% polyethylenimine) followed by four washes with ice cold buffer. Filters were dried, added to 4 mL scintillation cocktail and then counted on a liquid scintillation counter. Non-specific binding was defined with 10 μM histamine according to Chen and Prusoff, Biochem. Pharmacol. 1973, 22:3099. KI values were calculated based on a KD of 800 pM and a ligand concentration ([L]) of 800 pM according to the formula: KI=(IC50)/(1+([L]/(KD)). KI values are provided in the examples above.
row,Ki [nM],SMILES
1,500,"CCCCN(CCCC)CCCOc1ccc(-c2cn3cccc(C)c3n2)cc1 [Example 2, 2-[4-[3-(Dibutylamino)propoxy]phenyl)-8-methylimidazo[1,2-a]pyridine]"
2,70,"CCCCN(CCCC)CCCOc1ccc(C(=O)c2cn3ccc(C)cc3n2)cc1 [Example 3, [4-(3-dibutylamino-propoxy)-phenyl]-(7-methyl-imidazo[1,2-a]pyridin-2-yl)-methanone]"
3,327,"CCCCN(CCCC)CCCOc1ccc(-c2nc3c(C)cccn3c2C)cc1 [Example 4, 2-(4-Dibutylaminopropoxyphenyl)-3,8-dimethylimidazo[1,2-a]pyridine]"
4,500,"CCCCN(CCCC)CCCOc1ccc(C(=O)c2cn3cccc(C)c3n2)cc1 [Example 5, 2-(4-Dibutylaminopropoxybenzoyl)-8-methylimidazo[1,2-a]pyridine]"
5,44,"CCCN(CCC)CCCOc1ccc(-c2cn3cccc(C)c3n2)cc1 [Example 7, 2-(4-Dipropylaminopropoxyphenyl)-8-methylimidazo[1,2-a]pyridine]"
6,14,"Cc1cccn2cc(-c3ccc(OCCCN(C)C)cc3)nc12 [Example 8, 2-(4-Dimethylaminopropoxyphenyl)-8-methylimidazo[1,2-a]pyridine]"
7,119,"CN(C)CCCOc1ccc(-c2cn3ccccc3n2)cc1 [Example 9, 2-(4-Dimethylaminopropoxyphenyl)imidazo[1,2-a]pyridine]"
8,15,"CCN(CC)CCOc1ccc(-c2cn3cccc(C)c3n2)cc1 [Example 10, 2-(4-Diethylaminoethoxyphenyl)-8-methylimidazo[1,2-a]pyridine]"
9,55,"Cc1cccn2cc(-c3ccc(OCCN(C(C)C)C(C)C)cc3)nc12 [Example 11, 2-(4-Diisopropylaminoethoxyphenyl)-8-methylimidazo[1,2-a]pyridine]"
10,500,"CCCCCN(CCCCC)CCCOc1ccc(-c2cn3cccc(C)c3n2)cc1 [Example 13, 2-(4-Dipentylaminopropoxyphenyl)-8-methylimidazo[1,2-a]pyridine]"
11,14,"CCCN(CCC)CCCOc1ccc(-c2cn3cccc(C)c3n2)cc1C [Example 14, 2-(4-Dipropylaminopropoxy-(3-methyl)-phenyl)-8-methylimidazo[1,2-a]pyridine]"
